Patent US20100016445A1, “TRANSDERMAL DIETHYLSTILBESTROL FOR TREATING PROSTATE CANCER” (Oregon Health and Science University, priority 2006, published 2010)

Key:
[1] = oral, versus conventional ADT, non-metastatic prostate cancer; cited from earlier work
[2] = test system: dihydrotestosterone and testosterone; experiment: Mouse Experiment #2: radioimmunoassay for androgen suppression by DES; type: in vivo, athymic nude mice; details: DES i.p., 1 hour (used as baseline)
Experimental: Six athymic nude mice (Harlan) were used for this experiment. As above, mouse 1 received a 100 μl injection of a 7.5% DES solution in DMSO, for a total dose of […]. Mice 2, 3, 4, 5, and 6 received three applications of 0%, 0.5%, 1%, 2%, and 3% DES cream at 24 h intervals. 24 h following the final cream application and 1 h post-injection, blood was taken from each mouse by cardiac puncture. Each cardiac puncture sample was combined with 0.1 ml sodium heparin (50 mg/ml; Sigma, cat #). Blood plasma was isolated from each sample by centrifugation at 4,000 rpm for 15 minutes. This yielded approximately 0.2 to 0.4 ml of plasma from each sample.
A radioimmunoassay that detects both dihydrotestosterone and testosterone was used to assess androgen suppression by DES.

[3] = Mouse Experiment #1: DES in mouse plasma by TSQ-ESI-MS after i.p. injection or topical DES cream; type: in vivo; details: ip, 0.75 mg, DES i.p. 0.75 mg, read-out: DES Amount in plasma
Experimental: 375 mg of diethylstilbestrol (DES; Sigma, cat #D4628) was then added to 2.5 ml of the lecithin solution and combined with 10 ml of the 20% poloxamer solution. This combination was stirred overnight at room temperature. The result was a viscous 3% (g/ml) DES cream, of which 0.25 ml was applied to each mouse resulting in a topical dose of approximately 7.5 mg.
100 μl samples of commercial BALB/C mouse plasma containing the following concentrations of DES were used to produce a standard curve: 0, 0.01, 0.02, 0.05, 0.08, 0.1, 0.2, 0.5, 0.8, 1.0 (nanograms of DES per milliliter of mouse plasma). Each plasma standard was spiked with 10 μl of d8-DES (Isotech, cat #614289) used as an internal standard. Prior to the next step, samples taken from live mice were exposed to 5 μl of β-glucuronidase (Sigma, cat #G7017) and incubated at 37° C. for 70 minutes at 100 rpm. The enzymatic reaction was necessary in order to separate the DES molecule from any conjugated glucoronic acid that may be present. Following this incubation, 10 μl of 6M perchloric acid and 50 μl of acetonitrile were added. Each sample was then mixed for 2 minutes, following by centrifugation at 17,000×g for 5 minutes at 5° C. The supernatant was combined with 40 μl of 0.75M potassium carbonate and mixed for 30 seconds. Precipitated potassium perchlorate was removed by centrifugation at 17,000×g for 5 minutes at 5° C. […]

[4] = test system: hot flashes; details: DES 1 mg per day, cited from earlier work
[5] = Mouse Experiment #2: DES in mouse plasma by TSQ-ESI-MS after three cream applications or i.p. injection; type: in vivo, athymic nude mice; details: athymic nude, ip, DES i.p. 0.75 mg, β-glucuronidase, read-out: DES Amount in plasma
Experimental: 100 μl samples of commercial BALB/C mouse plasma containing the following concentrations of DES were used to produce a standard curve: 0, 0.01, 0.02, 0.05, 0.08, 0.1, 0.2, 0.5, 0.8, 1.0 (nanograms of DES per milliliter of mouse plasma). Each plasma standard was spiked with 10 μl of d8-DES (Isotech, cat #614289) used as an internal standard. Prior to the next step, samples taken from live mice were exposed to 5 μl of β-glucuronidase (Sigma, cat #G7017) and incubated at 37° C. for 70 minutes at 100 rpm. The enzymatic reaction was necessary in order to separate the DES molecule from any conjugated glucoronic acid that may be present. Following this incubation, 10 μl of 6M perchloric acid and 50 μl of acetonitrile were added. Each sample was then mixed for 2 minutes, following by centrifugation at 17,000×g for 5 minutes at 5° C. The supernatant was combined with 40 μl of 0.75M potassium carbonate and mixed for 30 seconds. Precipitated potassium perchlorate was removed by centrifugation at 17,000×g for 5 minutes at 5° C. The resulting supernatant was subjected to TSQ-ESI-MS. The chromatography conditions were the following: 25 μl metal loop, 10 μl no waste injection; oven 22° C.; flow rate 0.3 ml/min; solvents: A=water, C=MeOH; column: Hypersil Gold 100×2.1 mm, 5 μm bore (Thermo Scientific, catalog #25005-102130; with guard column). […]

[6] = patients receiving 5 mg of DES per day, oral; cited from earlier work
[7] = test system: coagulation factors; details: in vivo; cited from earlier work
[8] = cited from earlier work
[9] = PEP group, 915 men, median follow-up 27 months

CCC(=C(CC)c1ccc(O)cc1)c1ccc(O)cc1 [DES, 4-[4-(4-hydroxyphenyl)hex-3-en-3-yl]phenol]
urinary N-telopeptide levels (marker for bone turnover) [1]: significantly lower | [testosterone] [2]: 143 pg/mlI | concentration at 1 h ([3]; no β-glucuronidase): 0.089 ng/mL | concentration at 1 h ([3]; β-glucuronidase sample prep): 1.48 ng/mL | patients with significant improvement of hot flashes ([4]; remaining patients): 14% | patients with resolution of hot flashes [4]: 86% | concentration at 1 h [5]: 1.93 ng/mL | increase in non-cancer related deaths, mostly cardiovascular [6]: 36%

C[C@]12CC[C@@H]3c4ccc(O)cc4CC[C@H]3[C@@H]1CC[C@@H]2O [transdermal estradiol, estradiol]
F1.2 [7]: did not affect

polyoestradiol phosphate [PEP]
Antithrombin III activity [7]: significant decrease | Factor VII [7]: no change | Fibrinogen [7]: unchanged | non-fatal cardiovascular events: heart failure [8, 9]: 4.4% | non-fatal cardiovascular events: ischemic heart disease [8, 9]: 3.7% | cardiovascular or thromboembolic complications ([8]; phase I, intramuscular, 12 patients, median 12.9 months): did not cause any
